Data on three compounds can be found in patent US11634393B2, “Substituted tolyl fungicides” (FMC CORPORATION, priority 2018, dated 2023).

As usually defined, the pest or weed control is how far the test organism was held down. Low readings indicate a weak effect, high ones a strong effect. As a reminder, the melting point is the temperature, or range, at which the solid turns liquid.

In series [1] the test system is Zymoseptoria tritici. In words: Test A: wheat leaf blotch, spray on wheat seedlings, disease control rating. Format: in vivo. The settings on record: 100 = 100% disease control, 0 = no disease control relative to the controls; for pest or weed control at 10 ppm: Rate 10 ppm. An excerpt:
(§1) General protocol for preparing test suspensions for Tests A-F: the test compounds were first dissolved in acetone in an amount equal to 3% of the final volume and then suspended at the desired concentration (in ppm) in acetone and purified water (50/50 mix by volume) containing 250 ppm of the surfactant PEG400 (polyhydric alcohol esters). The resulting test suspensions were then used in Tests A-F.
The test solution was sprayed to the point of run-off on wheat seedlings. The following day the seedlings were inoculated with a spore suspension of Zymoseptoria tritici (the causal agent of wheat leaf blotch) and incubated in a saturated atmosphere at 24° C. for 48 h, and then moved to a growth chamber at 20° C. for 17 days, after which time disease ratings were made.
(§2) A rating of 100 indicates 100% disease control and a rating of 0 indicates no disease control (relative to the controls). A dash (-) indicates the compound was not tested.

Series [2] deals with Puccinia recondita f. sp. tritici. In words: Test B: wheat leaf rust, spray on wheat seedlings, disease control rating. It is filed as in vivo. The note with it: Puccinia recondita, 192 h, 100 = 100% disease control, 0 = no disease control relative to the controls; for pest or weed control at 10 ppm: Rate 10 ppm. A digest of the protocol:
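Compound in acetone (3% of final volume) was suspended at the stated ppm in acetone/water 50/50 with 250 ppm PEG400 and sprayed to run-off on wheat seedlings. Puccinia recondita spores were inoculated next day, then 24 h saturated atmosphere at 20 °C and 7 days at 20 °C. Rated 0–100% disease control versus controls.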

Series [3] concerns Blumeria graminis f. sp. tritici. Description: Test C: wheat powdery mildew, spray on wheat seedlings, disease control rating. It is filed as in vivo. The note with it: 192 h, 100 = 100% disease control, 0 = no disease control relative to the controls; for pest or weed control at 10 ppm: Rate 10 ppm.
From the text: as §1
The test suspension was sprayed to the point of run-off on wheat seedlings. The following day the seedlings were inoculated with a spore dust of Blumeria graminis f. sp. tritici, (also known as Erysiphe graminis f. sp. tritici, the causal agent of wheat powdery mildew) and incubated in a growth chamber at 20° C. for 8 days, after which time visual disease ratings were made.
as §2

For series [4], the system named is Phakopsora pachyrhizi. In words: Test D: Asian soybean rust, spray on soybean seedlings, disease control rating. The settings on record: Phakopsora pachyrhizi, 216 h, 100 = 100% disease control, 0 = no disease control relative to the controls; for pest or weed control at 10 ppm: Rate 10 ppm. Format: in vivo. The essentials: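 Soybean seedlings sprayed to run-off with compound suspension (ppm, in 50/50 acetone/water with 250 ppm PEG400), inoculated next day with P. pachyrhizi spores, held 24 h saturated at 22°C then 8 days at 22°C. Visual rating 0-100% disease control relative to controls.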

The subject of series [5] is Botrytis cinerea. Description: Test E: tomato Botrytis, spray on tomato seedlings, disease control rating. It is filed as in vivo. The note with it: 100 = 100% disease control, 0 = no disease control relative to the controls; for pest or weed control at 10 ppm: Rate 10 ppm.
From the text: as §1
The test suspension was sprayed to the point of run-off on tomato seedlings. The following day the seedlings were inoculated with a spore suspension of Botrytis cinerea (the causal agent of tomato Botrytis) and incubated in a saturated atmosphere at 20° C. for 48 h, and then moved to a growth chamber at 24° C. for 3 days, after which time visual disease ratings were made.
as §2

As for `COC(=O)NCc1cc(-c2ccn(-c3c(F)cc(C#N)cc3F)n2)ccc1C` [Compound 2], the melting point fell in the range of 171 to 174 °C. The pest or weed control at 10 ppm in series [1] was determined as 13%. Further, the pest or weed control at 10 ppm in series [2] was found to be 68%. This compound also showed a pest or weed control at 10 ppm in series [3] of 0%. The compound also had a pest or weed control at 10 ppm in series [4] of 100%. For the same compound, the pest or weed control at 10 ppm in series [5] was determined as 0%.

Take `COC(=O)NCc1cc(-c2ncn(-c3c(F)cc([N+](=O)[O-])cc3F)n2)ccc1C` [Compound 107]: the melting point lay in the range of 179 to 183 °C. In addition, the pest or weed control at 250 ppm in series [1] (Rate 250 ppm) amounted to 28%. For the same compound, the pest or weed control at 250 ppm in series [2] (Rate 250 ppm) turned out to be 80%. Further, the pest or weed control at 250 ppm in series [3] (Rate 250 ppm) was 43%. This compound also displayed a pest or weed control at 250 ppm in series [4] (Rate 250 ppm) of 0%. Moreover, the pest or weed control at 250 ppm in series [5] (Rate 250 ppm) was 0%.

`COC(=O)NCc1cc(-c2ccn(-c3c(F)cc(C(F)(F)F)cc3F)n2)ccc1C` [Compound 64, methyl N-[[5-[1-[2,6-difluoro-4-(trifluoromethyl)phenyl]-1H-pyrazol-3-yl]-2-methylphenyl]methyl]carbamate] came in with a melting point of 106 to 108 °C. In addition, the pest or weed control at 10 ppm in series [1] turned out to be 0%. In addition, the pest or weed control at 10 ppm in series [2] turned out to be 100%. In series [3], this compound gave a pest or weed control at 10 ppm of 89%. Besides, in series [4], the pest or weed control at 10 ppm was found to be 100%. The compound further registered a pest or weed control at 10 ppm in series [5] of 0%.
